Patent publication US20020156269A1, “Crystals of diuridine tetraphosphate or salt thereof, process for producing the crystals, and process for producing the compounds” (YAMASA CORPORATION, priority 1998, published 2002)

Assays:
[1] = Hygroscopicity: standing for nine days at controlled temperature and relative humidity; type: physicochemical; settings: for decomposition or change in weight on standing: initial water content approximately 14%
Procedure: U2P4.4Na crystals (octahydrate) having a water content of approximately 14% were allowed to stand for nine days under the following conditions: a) 25° C. and a relative humidity of 57%; b) 25° C. and a relative humidity of 75%; and c) 40° C. and a relative humidity of 75%. […] The crystals have proven to be stable and to have no hygroscopicity. U2P4.4Na crystals (tetrahydrate) having a water content of approximately 8% were allowed to stand for nine days under conditions of 40° C. and a relative humidity of 75%. In this case, the water content increased to 14-15%.

[2] = Stability: acceleration test in sealed bottles at 60° C. for 13 days; type: physicochemical; settings: sealed bottle, 13 days at 60° C.
Procedure: U2P4.4Na crystals (octahydrate) and a lyophilized product were placed in respective bottles, which were then sealed and allowed to stand for 13 days at 60° C. (acceleration test).

Row | state of the product on storage ([1]; 40° C. and a relative humidity of 75%, on the seventh day of storage) | change of water content on standing ([1]; nine days, 40° C. and a relative humidity of 75%, initial water content approximately 1%) | decomposition [2] | weight loss of U2P4.4Na [2] | decomposition or change in weight on standing ([1]; nine days, 25° C. and a relative humidity of 57%) | decomposition or change in weight on standing ([1]; nine days, 25° C. and a relative humidity of 75%) | decomposition or change in weight on standing ([1]; nine days, 40° C. and a relative humidity of 75%) | water content after standing ([1]; nine days, 40° C. and a relative humidity of 75%, initial water content approximately 8% (tetrahydrate)) | SMILES
1 | mud-like state due to deliquescence | increased gradually | partial decomposition | approximately 1.4% |  |  |  |  | O=c1ccn([C@@H]2O[C@H](COP(=O)([O-])OP(=O)([O-])OP(=O)([O-])OP(=O)([O-])OC[C@H]3O[C@@H](n4ccc(=O)[nH]c4=O)C(O)C3O)C(O)C2O)c(=O)[nH]1.[Na+].[Na+].[Na+].[Na+] (stereo partly drawn) [lyophilized product, P^1,P^4-di(uridine 5′-)tetraphosphate tetrasodium salt, reference compound]
2 |  |  | No decomposition |  | No decomposition or change in weight | No decomposition or change in weight | No decomposition or change in weight |  | O=c1ccn([C@@H]2O[C@H](COP(=O)([O-])OP(=O)([O-])OP(=O)([O-])OP(=O)([O-])OC[C@H]3O[C@@H](n4ccc(=O)[nH]c4=O)C(O)C3O)C(O)C2O)c(=O)[nH]1.[Na+].[Na+].[Na+].[Na+] (stereo partly drawn) [U2P4.4Na crystals (octahydrate), P^1,P^4-di(uridine 5′-)tetraphosphate tetrasodium salt]
3 |  |  |  |  |  |  |  | 14-15% | O=c1ccn([C@@H]2O[C@H](COP(=O)([O-])OP(=O)([O-])OP(=O)([O-])OP(=O)([O-])OC[C@H]3O[C@@H](n4ccc(=O)[nH]c4=O)C(O)C3O)C(O)C2O)c(=O)[nH]1.[Na+].[Na+].[Na+].[Na+] (stereo partly drawn) [U2P4.4Na crystals (tetrahydrate), P^1,P^4-di(uridine 5′-)tetraphosphate tetrasodium salt]
